# According to patent US10435388B2, “Selective inhibitors of clinically important mutants of the EGFR tyrosine kinase” (CS PHARMATECH LIMITED, priority 2016, dated 2019):
# Several values for one entry are separate records, joined by “and”; a condition that tells them apart may be missing. Identical values can stand only once.
# Columns and labels:
# [1] = molecular target: EGFR_d746-750 (Homo sapiens, UniProt P00533, DEL746-750); test: Enzyme assay, IC50 for single mutant EGFR_d746-750 (Caliper); format: biochemical; conditions: enzyme phosphorylation assay
# Sequence of EGFR_d746-750 (P00533 with tags, fused parts or gaps DEL746-750): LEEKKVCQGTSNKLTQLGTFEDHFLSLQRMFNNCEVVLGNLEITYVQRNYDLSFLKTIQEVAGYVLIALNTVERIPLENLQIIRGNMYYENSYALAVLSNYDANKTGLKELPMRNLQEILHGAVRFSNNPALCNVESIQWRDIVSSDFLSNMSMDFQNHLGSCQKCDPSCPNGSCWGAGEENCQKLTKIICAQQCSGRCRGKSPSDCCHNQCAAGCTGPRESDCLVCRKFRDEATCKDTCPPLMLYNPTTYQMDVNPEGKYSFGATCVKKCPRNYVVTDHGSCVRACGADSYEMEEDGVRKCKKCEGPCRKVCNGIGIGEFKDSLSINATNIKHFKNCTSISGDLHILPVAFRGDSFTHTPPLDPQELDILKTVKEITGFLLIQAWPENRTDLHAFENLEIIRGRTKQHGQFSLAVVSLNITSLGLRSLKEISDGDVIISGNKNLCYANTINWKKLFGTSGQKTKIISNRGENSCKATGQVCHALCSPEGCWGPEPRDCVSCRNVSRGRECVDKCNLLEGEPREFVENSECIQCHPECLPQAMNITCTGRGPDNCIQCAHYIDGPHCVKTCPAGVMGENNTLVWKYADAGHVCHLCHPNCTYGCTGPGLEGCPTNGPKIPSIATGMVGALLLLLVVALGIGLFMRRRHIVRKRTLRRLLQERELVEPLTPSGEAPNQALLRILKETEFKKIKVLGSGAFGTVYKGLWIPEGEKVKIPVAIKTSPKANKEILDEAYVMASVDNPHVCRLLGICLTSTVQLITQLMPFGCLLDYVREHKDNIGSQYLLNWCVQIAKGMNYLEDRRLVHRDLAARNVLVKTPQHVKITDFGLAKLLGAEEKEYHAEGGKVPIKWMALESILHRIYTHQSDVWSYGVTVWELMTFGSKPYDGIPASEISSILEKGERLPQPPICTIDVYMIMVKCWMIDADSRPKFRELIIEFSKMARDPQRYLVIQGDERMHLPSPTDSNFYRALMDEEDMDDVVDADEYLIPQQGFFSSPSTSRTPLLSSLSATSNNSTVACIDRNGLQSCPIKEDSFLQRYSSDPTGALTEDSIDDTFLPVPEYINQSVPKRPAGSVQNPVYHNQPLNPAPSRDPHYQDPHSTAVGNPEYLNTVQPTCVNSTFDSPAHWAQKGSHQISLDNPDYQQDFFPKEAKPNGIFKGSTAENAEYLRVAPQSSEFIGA
# Procedure: Using the same technique as described in the previous paragraph, various mutated forms of the epidermal growth factor receptor may be isolated from appropriate cell lines which contain them. For example, the EGFR de1746-750 mutant protein may be extracted from PC-9 cells, and the L858R/T790M double mutant EGFR protein may be isolated from H1975 cells.
# Determination of IC50 Values for Single Mutant EGFR_d746-750
# Dilute all compounds to 500 μM stock solutions in 100% DMSO and make a serial of 4-fold dilution for 10 doses. “Max” and “Min” control contain 100% DMSO. “Max” stands for […], “Min” stands for low control without compounds. Transfer 10 μl of compounds to 90 μl of 1× kinase base buffer to make intermediate dilution. […] Incubate at RT for 1 hr and 25 μl stop buffer to end up reaction. Collect conversion data from Caliper and conversion data from Caliper program. Fit the data in XLfit to obtain IC50 values.
# [2] = tested on: PC9 cells (EGFR d746-750 single mutant); test: PC-9 growth inhibition assay (cell proliferation), Method A; format: cell-based, human; conditions: cellular proliferation, PC9 cells, 72 h, CellTiter-Glo (Table 1); read-out: PC9 IC50 (nM) SM
# [3] = tested on: LoVo cells (unmutated EGFR wild type); test: LoVo growth inhibition assay (cell proliferation), Method A; format: cell-based; conditions: cellular proliferation, 72 h, CellTiter-Glo (Table 1), read-out: LoVo IC50 (nM) WT
# Procedure: Cell Proliferation Assays—Method A
# LoVo Growth Inhibition Assay (Cell Proliferation)
# The rest of the procedure was carried out in the same manner as described for the H1975 cells.
# [4] = tested on: p-EGFR in H1975 cells (L858R/T790M double mutant EGFR); conditions: read-out: H1975 IC50; cellular EGFR autophosphorylation, 2 h treatment, ELISA
# Procedure: Cellular EGFR Autophosphorylation Assays.
# H1975 cells were cryopreserved in liquid nitrogen. […] Remove the vial from liquid nitrogen and thaw rapidly by placing at 37° C. in a water bath with gentle agitation for 1-2 minutes and then decontaminated by wiping with 70% ethanol before opening in a Class II biological safety cabinet. Transfer the vial contents drop-wise into 10 mL of cell culture medium in a sterile 15 mL conical tube. Then centrifuged the tube at 200× g for 5 minutes and aspirate the supernatant. Re-suspend the cell pellet with 1 mL of fresh cell culture medium and transfer it in to the T75 flask containing cell culture medium.
# To passage H1975 cells, firstly, the adherent cells were rinsed with Trypsin/EDTA. Then add Trypsin/EDTA (3 mL for a T75 flask) into the flask and swirl to ensure the cells coated with trypsin evenly. Then incubate the flasks at 37° C. until the cells detach. Add equal volume of cell culture medium to stop the reaction. Collect the detached cells and centrifuged at 200× g for 5 minutes followed by re-suspended in fresh culture medium. Then, the cells were transferred into a new T75 flask containing cell culture medium. Cells were sub-cultured three times per week at a ratio of 1:4 in culture medium.
# Harvest cells from flask into cell culture medium and the cell numbers counted using Automated Cell Counter (Thermo Fisher Scientific, Countess™). Dilute the cells into 250,000 cells/mL with culture medium and add 40 μL of cell suspension into each well of 384-well cell culture plate as designated. The final concentration was 10,000 cells/well. The plates were covered with lid and placed in 37° C. 5% CO2 incubator overnight for cell attachment.
# On the second day, test compounds were dissolved in DMSO at 10 mM. […] The same volume of DMSO was adopted as high control.
# Place the plate back to 37° C. 5% CO2 incubator for 2 hours. Replace the medium of each well with ice-cold HBSS. Then remove the HBSS, add 30 μL cell lysis buffer into each well and shake the plates for 30 mins on a plate shaker. Centrifuge for 5 min at 1,000 rpm to remove bubbles and transfer 25 uL of the lysate supernatant for p-EGFR assay by using a commercial ELISA kit (R&D, DYC1095B-5).
# For estimation of IC50, the absorption readout are transformed to % relative activity by applying the following equation
# [formula] The IC50 was then calculated by fitting in XLFit (IDBS, Guildford, Surrey) to a four parameters logistic curve.
structure (smiles),measurement,setting,value
C=CC(=O)Nc1cc(Nc2nccc(-c3c[nH]c4ccccc34)n2)c(OC)cc1N(C)CCN(C)C [AZD-5104],IC50,[1],1.1 nM
same,IC50,[2],3.4 nM
same,IC50,[3],3250 nM
same,IC50,[4],1.84 nM and 3.58 nM
